The source of these data is patent US20110021565A1, “PIPERIDINE DERIVATIVES AS NK3 ANTAGONISTS” (priority 2007, published 2011).

The test has as its target T1, recombinant human NK3 receptor (Homo sapiens, UniProt P29371).
T1 construct: expressed in transfected cells; host or cells: HEK293 cells, transient expression; membrane preparation
T1 sequence (P29371 1-465): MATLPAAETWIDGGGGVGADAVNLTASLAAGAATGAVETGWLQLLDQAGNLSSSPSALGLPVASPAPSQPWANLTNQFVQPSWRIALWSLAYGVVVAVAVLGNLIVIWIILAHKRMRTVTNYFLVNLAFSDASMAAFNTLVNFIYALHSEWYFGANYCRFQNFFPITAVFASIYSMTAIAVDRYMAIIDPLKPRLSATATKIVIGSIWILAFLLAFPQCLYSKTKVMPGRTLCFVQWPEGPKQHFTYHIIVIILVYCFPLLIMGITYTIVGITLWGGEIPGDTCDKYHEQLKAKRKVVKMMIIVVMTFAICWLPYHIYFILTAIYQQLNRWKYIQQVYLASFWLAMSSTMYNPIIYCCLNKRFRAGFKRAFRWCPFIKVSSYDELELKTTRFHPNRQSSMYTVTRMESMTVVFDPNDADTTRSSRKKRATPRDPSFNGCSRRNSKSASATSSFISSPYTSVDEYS
In words: [3H]SR142801 competition binding assay. The gist of the method: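 Ki derived by Cheng-Prusoff from Hill-fitted IC50 curves, duplicates, 10 μM SB222200 defining nonspecific binding. Radioligand used at KD concentration against compound at 0.0003-10 μM; transiently transfected HEK293 membranes, 5 μg/well, 75 min room temperature, Tris-HCl/MnCl2/phosphoramidon/BSA pH 7.4. Filter-bound counts read by scintillation.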

The mark [1] stands for this setting: [3H]SR142801, membranes of HEK293 cells transiently expressing recombinant human NK3 receptor, read-out: hNK3 Ki.
[2] abbreviates: representative compounds, [3H]SR142801, HEK293 membranes, human NK3 receptor, read-out: Ki NK3 h.

Like-named read-outs stand apart in the source and are kept apart here.

What is called Ki is a measure of affinity in units of concentration, obtained from inhibition or displacement. With `Cc1ccc(CN(C)C(=O)C(F)(CCN2CCC(NS(C)(=O)=O)CC2)c2ccc(Cl)c(Cl)c2)cc1` (centres unmarked) [Example 67, 2-(3,4-Dichloro-phenyl)-2-fluoro-4-(4-methanesulfonyl-amino-piperidin-1-yl)-N-methyl-N-(4-methyl-benzyl)-butyramide], the Ki under setting [1] was 323 nM.

On to `CN(Cc1ccccc1Cl)C(=O)C(F)(CCN1CCC(NS(C)(=O)=O)CC1)c1ccc(Cl)c(Cl)c1` (centres unmarked) [Example 68, N-(2-Chloro-benzyl)-2-(3,4-dichloro-phenyl)-2-fluoro-4-(4-methanesulfonyl-amino-piperidin-1-yl)-N-methyl-butyramide], for which, under setting [1], the Ki worked out at 159 nM.

As for `CCN(C1CCN(CCC(C)(C(=O)N(C)Cc2ccc(C(F)(F)F)c(F)c2)c2ccc(Cl)c(Cl)c2)CC1)S(C)(=O)=O` (centres unmarked) [Example 69, 2-(3,4-Dichloro-phenyl)-4-[4-(ethyl-methanesulfonyl-amino)-piperidin-1-yl]-N-(3-fluoro-4-trifluoromethyl-benzyl)-2,N-dimethyl-butyramide], the Ki under setting [1] was 2.4 nM and the Ki under setting [2] was 2.4 nM.

As to `CCN(C1CCN(CCC(C)(C(=O)N(C)Cc2ccc(Cl)c(Cl)c2)c2ccc(Cl)c(Cl)c2)CC1)S(C)(=O)=O` (centres unmarked) [Example 70, N-(3,4-Dichloro-benzyl)-2-(3,4-dichloro-phenyl)-4-[4-(ethyl-methanesulfonyl-amino)-piperidin-1-yl]-2,N-dimethyl-butyramide], the Ki under setting [1] was found to be 1.2 nM and the Ki under setting [2] came out at 1.2 nM.

Turning to `CCN(C1CCN(CCC(C)(C(=O)NCc2ccc(Cl)c(Cl)c2)c2ccc(Cl)c(Cl)c2)CC1)S(C)(=O)=O` (centres unmarked) [Example 71, N-(3,4-Dichloro-benzyl)-2-(3,4-dichloro-phenyl)-4-[4-(ethyl-methanesulfonyl-amino)-piperidin-1-yl]-2-methyl-butyramide], the Ki by setting is: under setting [1], 2.8 nM; under setting [2], 2.8 nM.

Take `CCN(C1CCN(CCC(C)(C(=O)N(C)Cc2ccc(Cl)cc2)c2ccc(Cl)c(Cl)c2)CC1)S(C)(=O)=O` (centres unmarked) [Example 72, N-(4-Chloro-benzyl)-2-(3,4-dichloro-phenyl)-4-[4-(ethyl-methanesulfonyl-amino)-piperidin-1-yl]-2,N-dimethyl-butyramide]: the Ki came to 2.2 nM under setting [1] and 2.2 nM under setting [2].

For `CCN(C1CCN(CCC(C)(C(=O)N(C)Cc2ccc(Cl)c(C(F)(F)F)c2)c2ccc(Cl)c(Cl)c2)CC1)S(C)(=O)=O` (centres unmarked) [Example 73, N-(4-Chloro-3-trifluoromethyl-benzyl)-2-(3,4-dichloro-phenyl)-4-[4-(ethyl-methanesulfonyl-amino)-piperidin-1-yl]-2,N-dimethyl-butyramide], the Ki by setting is: under setting [1], 1.5 nM; under setting [2], 1.5 nM.

Regarding `CCN(C1CCN(CCC(C)(C(=O)N(C)Cc2ccc(F)c(C(F)(F)F)c2)c2ccc(Cl)c(Cl)c2)CC1)S(C)(=O)=O` (centres unmarked) [Example 74, 2-(3,4-Dichloro-phenyl)-4-[4-(ethyl-methanesulfonyl-amino)-piperidin-1-yl]-N-(4-fluoro-3-trifluoromethyl-benzyl)-2,N-dimethyl-butyramide], the Ki under setting [1] stood at 1.3 nM and the Ki under setting [2] was found to be 1.3 nM.

`CCN(C1CCN(CCC(C)(C(=O)N(C)Cc2cccc(Cl)c2)c2ccc(Cl)c(Cl)c2)CC1)S(C)(=O)=O` (centres unmarked) [Example 75, N-(3-Chloro-benzyl)-2-(3,4-dichloro-phenyl)-4-[4-(ethyl-methanesulfonyl-amino)-piperidin-1-yl]-2,N-dimethyl-butyramide]: the inhibition constant Ki amounted to 3.9 nM under setting [1] and 3.9 nM under setting [2].

As for `CCN(C1CCN(CCC(C)(C(=O)N(C)Cc2ccc(C(F)(F)F)cc2)c2ccc(Cl)c(Cl)c2)CC1)S(C)(=O)=O` (centres unmarked) [Example 76, 2-(3,4-Dichloro-phenyl)-4-[4-(ethyl-methanesulfonyl-amino)-piperidin-1-yl]-2,N-dimethyl-N-(4-trifluoromethyl-benzyl)-butyramide], the Ki was 1.7 nM under setting [1] and 1.7 nM under setting [2].

For `CCN(C1CCN(CCC(C)(C(=O)N(C)Cc2ccc(C)cc2)c2ccc(Cl)c(Cl)c2)CC1)S(C)(=O)=O` (centres unmarked) [Example 77, 2-(3,4-Dichloro-phenyl)-4-[4-(ethyl-methanesulfonyl-amino)-piperidin-1-yl]-2,N-dimethyl-N-(4-methyl-benzyl)-butyramide], the Ki runs as follows: under setting [1], 3.1 nM; under setting [2], 3.1 nM.

`CCN(C1CCN(CCC(C)(C(=O)N(C)Cc2ccccc2Cl)c2ccc(Cl)c(Cl)c2)CC1)S(C)(=O)=O` (centres unmarked) [Example 78, N-(2-Chloro-benzyl)-2-(3,4-dichloro-phenyl)-4-[4-(ethyl-methanesulfonyl-amino)-piperidin-1-yl]-2,N-dimethyl-butyramide]: the Ki reads like this: under setting [1], 3.6 nM; under setting [2], 3.6 nM.

`CN(Cc1ccc(C(F)(F)F)c(F)c1)C(=O)C(C)(CCN1CCC(N2CCCC2=O)CC1)c1ccc(Cl)c(Cl)c1` (centres unmarked) [Example 81, 2-(3,4-Dichloro-phenyl)-N-(3-fluoro-4-trifluoromethyl-benzyl)-2,N-dimethyl-4-[4-(2-oxo-pyrrolidin-1-yl)-piperidin-1-yl]-butyramide]: the inhibition constant Ki came to 3 nM under setting [1] and 3 nM under setting [2].

Take `CN(Cc1ccc(Cl)c(Cl)c1)C(=O)C(C)(CCN1CCC(N2CCCC2=O)CC1)c1ccc(Cl)c(Cl)c1` (centres unmarked) [Example 82, N-(3,4-Dichloro-benzyl)-2-(3,4-dichloro-phenyl)-2,N-dimethyl-4-[4-(2-oxo-pyrrolidin-1-yl)-piperidin-1-yl]-butyramide]: the Ki runs as follows: under setting [1], 1.2 nM; under setting [2], 1.2 nM.

Regarding `CC(CCN1CCC(N2CCCC2=O)CC1)(C(=O)NCc1ccc(Cl)c(Cl)c1)c1ccc(Cl)c(Cl)c1` (centres unmarked) [Example 83, N-(3,4-Dichloro-benzyl)-2-(3,4-dichloro-phenyl)-2-methyl-4-[4-(2-oxo-pyrrolidin-1-yl)-piperidin-1-yl]-butyramide], the Ki under setting [1] was found to be 2.3 nM and the Ki under setting [2] was 2.3 nM.

On to `CN(Cc1ccc(Cl)cc1)C(=O)C(C)(CCN1CCC(N2CCCC2=O)CC1)c1ccc(Cl)c(Cl)c1` (centres unmarked) [Example 84, N-(4-Chloro-benzyl)-2-(3,4-dichloro-phenyl)-2,N-dimethyl-4-[4-(2-oxo-pyrrolidin 1-yl)-piperidin-1-yl]-butyramide], for which the Ki runs as follows: under setting [1], 2.1 nM; under setting [2], 2.1 nM.

Consider `CN(Cc1ccc(Cl)c(C(F)(F)F)c1)C(=O)C(C)(CCN1CCC(N2CCCC2=O)CC1)c1ccc(Cl)c(Cl)c1` (centres unmarked) [Example 85, N-(4-Chloro-3-trifluoromethyl-benzyl)-2-(3,4-dichloro-phenyl)-2,N-dimethyl-4-[4-(2-oxo-pyrrolidin-1-yl)-piperidin-1-yl]-butyramide], for which the Ki under setting [1] came out at 1.4 nM and the Ki under setting [2] is 1.4 nM.

Turning to `CN(Cc1ccc(F)c(C(F)(F)F)c1)C(=O)C(C)(CCN1CCC(N2CCCC2=O)CC1)c1ccc(Cl)c(Cl)c1` (centres unmarked) [Example 86, 2-(3,4-Dichlorophenyl)-N-(4-fluoro-3-trifluoromethyl-benzyl)-2,N-dimethyl-4-[4-(2-oxo-pyrrolidin-1-yl)-piperidin-1-yl]-butyramide], the Ki reads like this: under setting [1], 1.4 nM; under setting [2], 1.4 nM.

Turning to `CN(Cc1cccc(Cl)c1)C(=O)C(C)(CCN1CCC(N2CCCC2=O)CC1)c1ccc(Cl)c(Cl)c1` (centres unmarked) [Example 87, N-(3-Chloro-benzyl)-2-(3,4-dichloro-phenyl)-2,N-dimethyl-4-[4-(2-oxo-pyrrolidin-1-yl)-piperidin-1-yl]-butyramide], the Ki was 4.6 nM under setting [1] and 4.6 nM under setting [2].

For the molecule `CN(Cc1ccc(C(F)(F)F)cc1)C(=O)C(C)(CCN1CCC(N2CCCC2=O)CC1)c1ccc(Cl)c(Cl)c1` (centres unmarked) [Example 88, 2-(3,4-Dichloro-phenyl)-2,N-dimethyl-4-[4-(2-oxo-pyrrolidin-1-yl)-piperidin-1-yl]-N-(4-trifluoromethyl-benzyl)-butyramide], the Ki by setting is: under setting [1], 1.8 nM; under setting [2], 1.8 nM.

With `Cc1ccc(CN(C)C(=O)C(C)(CCN2CCC(N3CCCC3=O)CC2)c2ccc(Cl)c(Cl)c2)cc1` (centres unmarked) [Example 89, 2-(3,4-Dichloro-phenyl)-2,N-dimethyl-N-(4-methyl-benzyl)-4-[4-(2-oxo-pyrrolidin-1-yl)-piperidin-1-yl]-butyramide], the Ki reads like this: under setting [1], 5.3 nM; under setting [2], 5.3 nM.

As to `CN(Cc1ccccc1Cl)C(=O)C(C)(CCN1CCC(N2CCCC2=O)CC1)c1ccc(Cl)c(Cl)c1` (centres unmarked) [Example 90, N-(2-Chloro-benzyl)-2-(3,4-dichloro-phenyl)-2,N-dimethyl-4-[4-(2-oxo-pyrrolidin-1-yl)-piperidin-1-yl]-butyramide], the Ki under setting [1] came to 2.5 nM and the Ki under setting [2] was 2.5 nM.

For the molecule `CC(NC(=O)C(C)(CCN1CCC(N2CCCC2=O)CC1)c1ccc(Cl)c(Cl)c1)c1ccccc1` (centres unmarked) [Example 91, 2-(3,4-Dichloro-phenyl)-2-methyl-4-[4-(2-oxo-pyrrolidin-1-yl)-piperidin-1-yl]-N-(1-phenyl-ethyl)-butyramide], the Ki under setting [1] was determined as 51.2 nM.

In the case of `CC(C)(NC(=O)C(C)(CCN1CCC(N2CCCC2=O)CC1)c1ccc(Cl)c(Cl)c1)c1ccccc1` (centres unmarked) [Example 92, 2-(3,4-Dichloro-phenyl)-2-methyl-N-(1-methyl-1-phenyl-ethyl)-4-[4-(2-oxo-pyrrolidin-1-yl)-piperidin-1-yl]-butyramide], the Ki under setting [1] amounted to 991 nM.
